Experimental data from patent publication US20210032257A1, “(E)-1-(4-(DIMETHYLAMINO)BUT-2-ENOYL)PYRROLIDIN-3-YL 4-((3-ISOPROPYL-5-METHYLPYRAZOLO[1,5-A]PYRIMIDIN-7-YL)AMINO)PIPERIDINE-1-CARBOXYLATE FOR INHIBITING CDK7” (Eli Lilly and Company, priority 2017, published 2021).

How the values were obtained:
Experiment in all cases: Biomarker study proliferation (CellTiter-Glo)
Type in all cases: cell-based
HUH28 = tested on: HUH28
Description: (§1) Cancer cell lines are profiled to evaluate the anti-proliferative activity of a test compound in-vitro. Mutation, copy number and gene expression information of ARID1A, KMT2C, KMT2D and/or RB1 genes across cancer cell lines is obtained from COSMIC database (cancer.sanger.ac.uk) and cBioportal (http://www.cbioportal.org/). Cells are cultured in growth medium and plated into a 96-well plate in 100 μL/well growth medium at 5000 cells/well then incubated at 37° C., 5% CO2 overnight. Cells are cultured using supplier recommended media and conditions well known in the art, for example with RPMI 1640 with or without HEPES & L-Glutamine (Thermo SH30255.01) and 1 mM Sodium Pyruvate, and 10% FBS(Gibco cat #10082). The 1000× intermediate dilution plate is prepared by making a 10 mM working solution of a test sample in DMSO and performing 1:3 dilutions in DMSO for 10 points. The 10× dosing plate is prepared by adding 2 μL from the 1000× intermediate dilution plate to 198 μL of OPTIMEM®+10% FBS and mixing well. The cell plate is then treated by adding 11 μL from the 10× dosing plate into the 100 μL/well cell plate for a 1× final concentration. Staurosporine is used as a maximum growth inhibition control at a final concentration of 5 μM. The cell plate is incubated for 7 days at 37° C., 5% CO2. Seven days after treatment, Cell Titer-Glo® (Promega cat #G7571) assay buffer and substrate are removed from −20° C. and allowed to equilibrate to RT. Assay buffer is added to the substrate and swirled gently to mix. The CELL TITER-GLO® reagent (100 μL/well) is added to the cell plate and incubated at RT for 15 minutes. After 15 minutes, luminescence is read using a plate reader. Data is analyzed in Excel and graphed in GraphPad Prism. Statistical analysis and p value is calculated using Mann-Whitney nonparameteric t tests using GraphPad Prism.
(§2) Anti-proliferative effects of a test compound are categorized as insensitive (IC50≥1 μM), cytostatic (IC50<1 μM and % inhibition <70%) or cytotoxic (IC50<1 μM and % inhibition ≥70%).

SAOS2 = tested on: SAOS2
Description: as §1, §2

CAOV3 = tested on: CAOV3
Description: as §1, §2

OAW42 = tested on: OAW42
Description: as §1, §2

TCCSUP = tested on: TCCSUP
Description: as §1, §2

NCIH146 = tested on: NCIH146
Description: as §1, §2

TEK1 = tested on: TEK1
Description: as §1, §2

SW48 = tested on: SW48
Description: as §1, §2

NCIH522 = tested on: NCIH522
Description: as §1, §2

HUH1 = tested on: HUH1
Description: as §1, §2

HCT8 = tested on: HCT8
Description: as §1, §2

HLF = tested on: HLF
Description: as §1, §2

A2058 = tested on: A2058
Description: as §1, §2

NCIH358 = tested on: NCIH358
Description: as §1, §2

M14 = tested on: M14
Description: as §1, §2

MDAMB231 = tested on: MDAMB231
Description: as §1, §2

IGROV1 = tested on: IGROV1
Description: as §1, §2

SNU1196 = tested on: SNU1196
Description: as §1, §2

KELLY = tested on: KELLY
Description: as §1, §2

[1] = 168 h, read-out: Anti-proliferation effect IC50

For `Cc1cc(NC2CCN(C(=O)O[C@H]3CCN(C(=O)/C=C/CN(C)C)C3)CC2)n2ncc(C(C)C)c2n1` [Example 1, [(3S)-1-[(E)-4-(dimethylamino)but-2-enoyl]pyrrolidin-3-yl] 4-[(3-isopropyl-5-methyl-pyrazolo[1,5-a]pyrimidin-7-yl)amino]piperidine-1-carboxylate], which IC50 (HUH28; [1]) is on record?
The IC50 was 2900 nM.

And the “Anti-proliferation effect % Inh.” value (HUH28; HUH28, BILIARY, 7 days)?
The value was 32%.

And the “Anti-proliferation effect Outcome” value (HUH28; HUH28, BILIARY, 7 days)?
Its value is “Insensitive (insensitive (IC50≥1 μM))”.

What about the IC50 (SAOS2; Homo sapiens, SAOS-2, 168 h, read-out: Anti-proliferation effect IC50) of the same compound?
The IC50 was 28 nM.

What about the “Anti-proliferation effect % Inh.” value (SAOS2; SAOS2, BONE, 7 days) of the same compound?
Its value is 66%.

And the “Anti-proliferation effect Outcome” value (SAOS2; SAOS2, BONE, 7 days)?
The value was “Cytostatic (cytostatic (IC50<1 μM and % inhibition <70%))”.

And the “Anti-proliferation effect % Inh.” value (CAOV3; CAOV3, OVARY, 7 days)?
The value was 96%.

What about the “Anti-proliferation effect Outcome” value (CAOV3; CAOV3, OVARY, 7 days) of the same compound?
Its value is “Cytotoxic (cytotoxic (IC50<1 μM and % inhibition ≥70%))”.

What about the IC50 (CAOV3; Homo sapiens, Caov-3, 168 h, read-out: Anti-proliferation effect IC50) of the same compound?
The IC50 was 19 nM.

What about the IC50 (OAW42; Homo sapiens, OAW-42, 168 h, read-out: Anti-proliferation effect IC50) of the same compound?
The IC50 was 136 nM.

What about the “Anti-proliferation effect % Inh.” value (OAW42; OAW42, OVARY, 7 days) of the same compound?
Its value is 88%.

And the “Anti-proliferation effect Outcome” value (OAW42; OAW42, OVARY, 7 days)?
The value was “Cytotoxic (cytotoxic (IC50<1 μM and % inhibition ≥70%))”.

What about the IC50 (TCCSUP; Homo sapiens, TCC-SUP, 168 h, read-out: Anti-proliferation effect IC50) of the same compound?
The IC50 was 40 nM.

And the “Anti-proliferation effect % Inh.” value (TCCSUP; TCCSUP, URINARY, 7 days)?
The value was 61%.

What about the “Anti-proliferation effect Outcome” value (TCCSUP; TCCSUP, URINARY, 7 days) of the same compound?
Its value is “Cytostatic (cytostatic (IC50<1 μM and % inhibition <70%))”.

And the IC50 (NCIH146; Homo sapiens, NCI-H146, 168 h, read-out: Anti-proliferation effect IC50)?
The IC50 was 30 nM.

What about the “Anti-proliferation effect % Inh.” value (NCIH146; NCIH146, LUNG, 7 days) of the same compound?
The value was 77%.

And the “Anti-proliferation effect Outcome” value (NCIH146; NCIH146, LUNG, 7 days)?
The value was “Cytotoxic (cytotoxic (IC50<1 μM and % inhibition ≥70%))”.

And the IC50 (TEK1; [1])?
The IC50 was 40 nM.

What about the “Anti-proliferation effect % Inh.” value (TEK1; TEK1, BILIARY, 7 days) of the same compound?
The value was 87%.

And the “Anti-proliferation effect Outcome” value (TEK1; TEK1, BILIARY, 7 days)?
Its value is “Cytotoxic (cytotoxic (IC50<1 μM and % inhibition ≥70%))”.

What about the IC50 (SW48; Homo sapiens, SW48, 168 h, read-out: Anti-proliferation effect IC50) of the same compound?
The IC50 was 5 nM.

What about the “Anti-proliferation effect % Inh.” value (SW48; SW48, INTESTINE, 7 days) of the same compound?
Its value is 89%.

What about the “Anti-proliferation effect Outcome” value (SW48; SW48, INTESTINE, 7 days) of the same compound?
Its value is “Cytotoxic (cytotoxic (IC50<1 μM and % inhibition ≥70%))”.

What about the IC50 (NCIH522; Homo sapiens, NCI-H522, 168 h, read-out: Anti-proliferation effect IC50) of the same compound?
Its IC50 is 107 nM.

What about the “Anti-proliferation effect % Inh.” value (NCIH522; NCIH522, LUNG, 7 days) of the same compound?
The value was 50%.

What about the “Anti-proliferation effect Outcome” value (NCIH522; NCIH522, LUNG, 7 days) of the same compound?
The value was “Cytostatic (cytostatic (IC50<1 μM and % inhibition <70%))”.

And the “Anti-proliferation effect % Inh.” value (HUH1; HUH1, LIVER, 7 days)?
Its value is 72%.

What about the “Anti-proliferation effect Outcome” value (HUH1; HUH1, LIVER, 7 days) of the same compound?
Its value is “Cytotoxic (cytotoxic (IC50<1 μM and % inhibition ≥70%))”.

And the IC50 (HUH1; Homo sapiens, HuH-1, 168 h, read-out: Anti-proliferation effect IC50)?
The IC50 was 128 nM.

What about the “Anti-proliferation effect % Inh.” value (HCT8; HCT8, INTESTINE, 7 days) of the same compound?
Its value is 3%.

And the “Anti-proliferation effect Outcome” value (HCT8; HCT8, INTESTINE, 7 days)?
Its value is “Cytostatic (cytostatic (IC50<1 μM and % inhibition <70%))”.

And the IC50 (HCT8; Homo sapiens, HCT-8, 168 h, read-out: Anti-proliferation effect IC50)?
Its IC50 is 981 nM.

What about the IC50 (HLF; [1]) of the same compound?
The IC50 was 17 nM.

What about the “Anti-proliferation effect % Inh.” value (HLF; LIVER, 7 days) of the same compound?
The value was 100%.

And the “Anti-proliferation effect Outcome” value (HLF; LIVER, 7 days)?
Its value is “Cytotoxic (cytotoxic (IC50<1 μM and % inhibition ≥70%))”.

And the “Anti-proliferation effect % Inh.” value (A2058; A2058, SKIN, 7 days)?
The value was 97%.

What about the “Anti-proliferation effect Outcome” value (A2058; A2058, SKIN, 7 days) of the same compound?
The value was “Cytotoxic (cytotoxic (IC50<1 μM and % inhibition ≥70%))”.

And the IC50 (A2058; Homo sapiens, A2058, 168 h, read-out: Anti-proliferation effect IC50)?
Its IC50 is 30 nM.

What about the IC50 (NCIH358; Homo sapiens, NCI-H358, 168 h, read-out: Anti-proliferation effect IC50) of the same compound?
The IC50 was 42 nM.

And the “Anti-proliferation effect % Inh.” value (NCIH358; NCIH358, LUNG, 7 days)?
The value was 93%.

What about the “Anti-proliferation effect Outcome” value (NCIH358; NCIH358, LUNG, 7 days) of the same compound?
Its value is “Cytotoxic (cytotoxic (IC50<1 μM and % inhibition ≥70%))”.

What about the IC50 (M14; Homo sapiens, M14, 168 h, read-out: Anti-proliferation effect IC50) of the same compound?
Its IC50 is 32 nM.

And the “Anti-proliferation effect % Inh.” value (M14; M14, SKIN, 7 days)?
The value was 85%.

What about the “Anti-proliferation effect Outcome” value (M14; M14, SKIN, 7 days) of the same compound?
The value was “Cytotoxic (cytotoxic (IC50<1 μM and % inhibition ≥70%))”.

What about the IC50 (MDAMB231; Homo sapiens, MDA-MB-231, 168 h, read-out: Anti-proliferation effect IC50) of the same compound?
The IC50 was 2820 nM.

What about the “Anti-proliferation effect % Inh.” value (MDAMB231; MDAMB231, BREAST, 7 days) of the same compound?
The value was 23%.

And the “Anti-proliferation effect Outcome” value (MDAMB231; MDAMB231, BREAST, 7 days)?
Its value is “Insensitive (insensitive (IC50≥1 μM))”.

And the IC50 (IGROV1; Homo sapiens, IGROV-1, 168 h, read-out: Anti-proliferation effect IC50)?
Its IC50 is 72 nM.

What about the “Anti-proliferation effect % Inh.” value (IGROV1; IGROV1, OVARY, 7 days) of the same compound?
Its value is 70%.

And the “Anti-proliferation effect Outcome” value (IGROV1; IGROV1, OVARY, 7 days)?
Its value is “Cytotoxic (cytotoxic (IC50<1 μM and % inhibition ≥70%))”.

And the IC50 (SNU1196; [1])?
The IC50 was 43 nM.

And the “Anti-proliferation effect % Inh.” value (SNU1196; SNU1196, BILIARY, 7 days)?
The value was 68%.

And the “Anti-proliferation effect Outcome” value (SNU1196; SNU1196, BILIARY, 7 days)?
The value was “Cytostatic (cytostatic (IC50<1 μM and % inhibition <70%))”.

And the “Anti-proliferation effect % Inh.” value (KELLY; KELLY, CNS, 7 days)?
The value was 80%.

And the “Anti-proliferation effect Outcome” value (KELLY; KELLY, CNS, 7 days)?
The value was “Cytotoxic (cytotoxic (IC50<1 μM and % inhibition ≥70%))”.

What about the IC50 (KELLY; Kelly, 168 h, read-out: Anti-proliferation effect IC50) of the same compound?
Its IC50 is 58 nM.
